How the values were obtained:
HepG2 cells [1] = assay: Intracellular RONS detection with DCFH-DA fluorescent probe; assay type: cell-based, human; conditions: IC50 concentration
Experimental: (§1) Two different fluorescent dyes, i.e., 2,7-dichlorodihydrofluorescein diacetate (DCFH-DA, Cayman Chemicals Company, Ann Arbor, MI) and dihydroethidium (DHE, Sigma-Aldrich, St. Louis, MO) were utilized for the determination of intracellular levels of RONS after 1, 4, and 24 h of incubation with tested oxime reactivators or TBHP (positive control). Cells incubated with oxime-free DMEM represented untreated control. After the incubation, the experimental medium was removed and replaced with a solution of DCFH-DA or DHE at concentrations of 20 and 5 μmol/L, respectively. The cells were subsequently incubated at 37 °C in a CO2 incubator for 45 min. Afterward, the fluorescence intensity of each well was measured using a Spark multimode microplate reader at an excitation wavelength of 485 nm for DCFH-DA or 528 nm for the DHE probe and an emission wavelength of 535 or 590 nm, respectively. Each experiment was carried out in triplicate and repeated three independent times.
(§2) The toxicological indices IC50 were calculated from control-subtracted triplicates using nonlinear regression (four parameters) using GraphPad Prism 9 software version 9.3.0 (GraphPad Software Inc., San Diego, CA). One-way analysis of variance (ANOVA) followed by Dunnetʼs multiple comparison test was used for RONS, MDA, NP-SH, and NP-SS-NP statistical analysis by GraphPad Prism 9 software, version 9.3.0. Data are expressed as means ± standard deviation (SD) of three independent measurements (n = 3). Significant differences between oxime-treated and untreated control groups (p ≤ 0.05) were marked by an asterisk (*).

HepG2 cells [2] = assay: Intracellular RONS detection with DHE fluorescent probe; assay type: cell-based, human; conditions: IC50 concentration
Experimental: as §1, §2

HepG2 cells [3] = assay: Total intracellular MDA by LC-MS/MS; assay type: cell-based, human; conditions: IC50 concentration
HepG2 cells [4] = assay: Intracellular nonprotein thiols (NP-SH) by HPLC-UV; assay type: cell-based, human; conditions: 24 h, IC50 concentration
Experimental: The culture medium was removed from a 25 cm^2 culture flask on the day of the experiment, and cells were washed twice with 3 mL of phosphate-buffered saline (PBS; GE Healthcare Life Sciences, South Logan, UT). Subsequently, 3 mL of a plain DMEM medium (negative control) and a DMEM medium containing TBHP (positive control) or individual oximes were added to each flask, and cells were incubated for 1, 4, and 24 h. The concentration of individual oxime and TBHP in the DMEM medium corresponded to the IC50 value. After incubation, the experimental medium was removed, and cells were washed with 3 mL of PBS and harvested by scraping. The resulting suspension was centrifuged at 220g and 21 °C for 5 min (Universal 320R centrifuge, Hettich, Tuttlingen, Germany). The supernatant was removed and dried cell pellets were stored at −80 °C. Each experiment was carried out in three independent replicates.
The cell pellets were thawed at room temperature, resuspended in 500 μL of ultrapure water (Millipore Purification System, Merck, Millipore, Darmstadt, Germany), and sonicated for 2 min (2 s cycle, amplitude 20%) in a Q500 homogenizer (QSONICA Sonicators, Newton). Then, the homogenate was divided into three parts: 250 μL for the determination of malondialdehyde (MDA), 100 μL for each determination of nonprotein thiols (NP-SH) and disulfides (NP-SS-NP), and 10 μL for the Bradford protein assay.
The HepG2 cell homogenate obtained, as described in Section 2.6, was processed for the determination of intracellular NP-SH and NP-SS-NP, according to Muckova et al.[11] The samples were analyzed using the HPLC system described above equipped with an SPD 20-AV Prominence UV/vis detector. The analysis was carried out on a Phenomenex LUNA C18 column (150 mm × 3 mm, 3 μm, 100 Å) protected with a Security Cartridge (4 mm × 2 mm, Phenomenex, Torrance) at 30 °C and a constant flow rate of 0.330 mL/using the mobile phase consisting of 0.9% aqueous FA (A) and ACN (B) under gradient conditions: 0–1 min 12% B, 1.1–2 min 12–55% B, 2–7 min 55% B, 7.1 min 55% B, and 7.1–10 min 12% B. The detector was set at 326 nm and the sample injection volume was 20 μL.

rat plasma = conditions: in vivo; cited from earlier work
[5] = Colorimetric MTT cell viability assay, 24 h; conditions: human, HepG2 cells, IC50 (cytotoxicity, MTT assay), 24 h incubation
HepG2 cells [6] = assay: Colorimetric MTT cell viability assay, 24 h; conditions: read-out: IC50 (cytotoxicity, MTT assay), 24 h incubation

NC(=O)c1cc[n+](CCCC[n+]2ccc(C=NO)cc2)cc1.[Br-].[Br-] [K048, 4-carbamoyl-1-(4-(4-((hydroxyimino)methyl)pyridin-1-ium-1-yl)butyl)pyridin-1-ium dibromide]
increase of RONS (DCFH-DA probe) vs negative control (HepG2 cells [1]; 1 h incubation): 146% | increase of RONS (DCFH-DA probe) vs negative control (HepG2 cells [1]; 4 h incubation): 193% | increase of RONS (DCFH-DA probe) vs negative control (HepG2 cells [1]; 24 h incubation): 115% | increase of RONS (DHE probe) vs negative control (HepG2 cells [2]; 4 h incubation): 25.8% | increase of MDA levels vs untreated control (HepG2 cells [3]; 4 h incubation): 17.2% | increase of MDA levels vs untreated control (HepG2 cells [3]; 24 h exposure): 35.4% | decrease in NP-SH levels vs untreated control (HepG2 cells [4]): 11.4% | signs of oxidative stress (TBARS, superoxide dismutase activity) (rat plasma): no signs of oxidative stress | IC50 at 24 h [5]: ~30 mM | IC50 (HepG2 cells [6]): 30.6 mM

O/N=C/c1cc[n+](CCCC[n+]2ccc(/C=N/O)cc2)cc1 [K074, 1,1′-(butane-1,4-diyl)bis(4((hydroxyimino)methyl)pyridine-1-ium) dibromide]
increase of RONS (DCFH-DA probe) vs negative control (HepG2 cells [1]; 1 h incubation): 171% | increase of RONS (DCFH-DA probe) vs negative control (HepG2 cells [1]; 4 h incubation): 244% | increase of RONS (DCFH-DA probe) vs negative control (HepG2 cells [1]; 24 h incubation): 117% | increase of RONS (DHE probe) vs negative control (HepG2 cells [2]; 4 h incubation): 33.4% | increase of RONS (DHE probe) vs negative control (HepG2 cells [2]; 24 h incubation): 42.8% | increase of MDA levels vs untreated control (HepG2 cells [3]; 4 h incubation): 23.6% | increase of MDA levels vs untreated control (HepG2 cells [3]; 24 h exposure): 36.1% | decrease in NP-SH levels vs untreated control (HepG2 cells [4]): 11.6% | IC50 at 24 h [5]: ~27 mM | IC50 (HepG2 cells [6]): 27.2 mM
